Kd data for one compound are collected here from PMC10877925 (Cell Communication and Signaling : CCS, 2024).

One experiment concerns the target T1, PfEGF1-α (Plasmodium falciparum, UniProt Q8I0P6).
T1 construct: gene PF3D7_1357000; recombinant, pET28a vector, E. coli BL21; immobilised on NTA biosensor for BLI
T1 sequence (Q8I0P6 1-443): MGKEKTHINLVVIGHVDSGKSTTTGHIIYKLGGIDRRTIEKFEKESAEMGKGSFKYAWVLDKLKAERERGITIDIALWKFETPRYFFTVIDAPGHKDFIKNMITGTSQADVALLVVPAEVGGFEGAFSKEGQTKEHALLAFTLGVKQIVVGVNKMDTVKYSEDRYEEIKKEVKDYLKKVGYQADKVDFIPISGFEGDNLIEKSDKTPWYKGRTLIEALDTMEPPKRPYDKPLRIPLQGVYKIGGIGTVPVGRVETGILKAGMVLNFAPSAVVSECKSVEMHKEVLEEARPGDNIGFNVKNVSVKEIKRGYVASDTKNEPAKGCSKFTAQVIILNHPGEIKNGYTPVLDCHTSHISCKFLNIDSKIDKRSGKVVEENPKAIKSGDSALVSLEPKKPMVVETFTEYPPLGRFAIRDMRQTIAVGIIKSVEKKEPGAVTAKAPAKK
Briefly: bio-layer interferometry. It is filed as binding. Background: BLI is a label-free optical method that tracks binding on a fibre tip over time.

For another experiment, the target named is T2, PfSpdsyn (Plasmodium falciparum, UniProt Q8II73).
T2 construct: gene PF3D7_1129000; 29-residue N-terminal deletion, pET28a vector, E. coli BL21; immobilised on NTA biosensor for BLI
T2 sequence (Q8II73 30-321): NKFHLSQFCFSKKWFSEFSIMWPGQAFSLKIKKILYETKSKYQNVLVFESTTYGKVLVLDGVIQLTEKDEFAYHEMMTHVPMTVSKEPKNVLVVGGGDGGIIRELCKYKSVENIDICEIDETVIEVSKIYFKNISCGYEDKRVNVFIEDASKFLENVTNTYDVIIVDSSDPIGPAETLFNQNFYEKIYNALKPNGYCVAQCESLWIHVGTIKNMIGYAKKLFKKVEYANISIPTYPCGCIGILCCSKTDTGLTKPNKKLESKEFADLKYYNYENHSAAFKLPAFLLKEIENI
Description: bio-layer interferometry. Format: binding.

What is called Kd is a measure of binding affinity in units of concentration. A low value points to tighter binding. On to `CC1=C(O)C(=O)C=C2C1=CC=C1[C@@]2(C)CC[C@@]2(C)[C@@H]3C[C@](C)(C(=O)O)CC[C@]3(C)CC[C@]12C` [Celastrol], for which the dissociation constant (Kd) on PfEGF1-α is 243 µM; at PfSpdsyn it was 67.4 µM.
